In publication PMC9841431 (Nucleic Acids Research, 2022):
Values after ≈ are worked out from the molar mass of the structure shown. Where two headings read alike, the source gives them in different places.

What was measured:
M. tuberculosis H37Rv = experiment: microbe, parasite or virus in culture; type: cell-based; conditions: for MIC / MIC90: Mycobacterium tuberculosis, H37RV, read-out: M. tuberculosis MIC90
M. bovis BCG cultures = type: cell-based, Mycobacterium bovis BCG
Vero cells = conditions: CC50 (Vero) / MIC90 (replicating M. tuberculosis H37Rv)
in vitro = conditions: African green monkey, VERO cells CC50, 72 h exposure, ATP readout
[1] = test system: M. tuberculosis H37Rv in infected mouse Bone Marrow-Derived Macrophages; type: cell-based, Mycobacterium tuberculosis; conditions: BMDM; for Reduction of the burden of intracellular bacteria: 32 × MIC
[2] = test system: sigH and mrx2 expression in M. tuberculosis H37Rv; experiment: sigH and mrx2 transcriptional levels by qRT-PCR upon compound exposure; type: cell-based, Mycobacterium tuberculosis; conditions: 1×, 2×, 4×, 8× MIC90; different time points
[3] = test system: non-replicating M. tuberculosis H37Rv; type: cell-based, Mycobacterium tuberculosis; conditions: MBC90 NR / MIC90 replicating
Mrx2WT = Mrx2WT (Mycobacterium tuberculosis, UniProt O53193); experiment: Mrx2 enzyme kinetic assay; type: biochemical, M. tuberculosis; conditions: 10 μM compound, 30 μM enzyme, absorbance at 412 nm
Mrx2 mutants = type: biochemical, M. tuberculosis; conditions: enzyme kinetic assay

Mrx2WT, sequence (O53193 whole entry): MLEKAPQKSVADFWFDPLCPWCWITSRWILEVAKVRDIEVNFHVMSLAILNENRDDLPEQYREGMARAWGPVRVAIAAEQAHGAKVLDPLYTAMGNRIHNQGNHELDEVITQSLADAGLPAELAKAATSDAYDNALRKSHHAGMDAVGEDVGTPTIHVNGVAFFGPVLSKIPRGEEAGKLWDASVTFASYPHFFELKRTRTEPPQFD

## 1-Butyl-2-nitronaphtho[2,1-b]furan [nNF-C11]
M. tuberculosis H37Rv; REMA, H37Rv, median
  MIC90 R[…]. tuberculosis μM (median): 32.89 µM
  MIC90 R[…]. tuberculosis μg/ml (median): 8 µg/mL
M. tuberculosis H37Rv; REMA, H37Rv, range
  MIC90 R[…]. tuberculosis μg/ml (range): 8 to 16 µg/mL
M. tuberculosis H37Rv; value used for SI in Table 2
  M. tuberculosis MIC90: 8 µg/mL

## O=[N+]([O-])c1cn2c(n1)OC[C@@H](OCc1ccc(OC(F)(F)F)cc1)C2 [PA-824, Pretomanid, reference compound]
M. bovis BCG cultures
  NO release in treated M. bovis BCG cultures: significant NO release in a concentration dependent manner

## CO[C@H]1/C=C/O[C@@]2(C)Oc3c(C)c(O)c4c(O)c(c(/C=N/N5CCN(C)CC5)c(O)c4c3C2=O)NC(=O)/C(C)=C\C=C\[C@H](C)[C@H](O)[C@@H](C)[C@@H](O)[C@@H](C)[C@H](OC(C)=O)[C@@H]1C [RIF, Rifampicin, reference compound]
Vero cells
  Selectivity index (SI): 7824.1
In vitro
  CC50: 78.2 µg/mL (≈ 95 µM)
M. tuberculosis H37Rv
  MIC: 0.01 µg/mL (≈ 0.0122 µM)
[1]; 32 times its MIC
  Concentration needed to achieve a similar level (ca. 2 logs) of intracellular killing: 0.32 μg/ml

## O=[N+]([O-])c1cc2c(ccc3c2ccc2cc([N+](=O)[O-])oc23)o1 [nNF-C1, 2,7-dinitronaphtho[1,2-b:6,5-b']difuran]
M. tuberculosis H37Rv
  MIC90: 0.125 µg/mL (≈ 0.419 µM)

## O=[N+]([O-])c1cc2cc3ccc4oc([N+](=O)[O-])cc4c3cc2o1 [nNF-C2, 2,8-Dinitronaphtho[2,1-b:7,6-b']difuran]
[2]
  Induction of sigH and mrx2 expression: time and concentration-dependant induction of both genes
[3]
  Activity against non-replicating M. tuberculosis in the charcoal assay relative to MIC90 against replicating bacteria: 4–8 times
Mrx2WT
  Metabolism of the compound by Mrx2WT: completely metabolized
Mrx2 mutants
  Activity of Mrx2T25R, Mrx2S46R, Mrx2Y91S, Mrx2H140D and Mrx2R198G against the compound: only residual activity
M. tuberculosis H37Rv
  MIC90: 0.0625 µg/mL (≈ 0.21 µM)
[1]; 4 times of MIC90 (0.25 μg/ml)
  Reduction of the number of intracellular M. tuberculosis bacteria: ca. 2 logs
[1]
  Reduction of the burden of intracellular bacteria: more than 4 logs
M. bovis BCG cultures
  NO release in treated M. bovis BCG cultures: significant NO release in a concentration dependent manner

## O=[N+]([O-])c1cc2c(ccc3c4cc([N+](=O)[O-])oc4ccc23)o1 [nNF-C3, 2,7-Dinitronaphtho[2,1-b:6,5-b']difuran]
M. tuberculosis H37Rv
  MIC: 1 µg/mL (≈ 3.35 µM)

## COC(=O)c1ccc2c(ccc3oc([N+](=O)[O-])cc32)c1 [nNF-C4, Methyl 2-nitronaphtho[2,1-b]furan-7-carboxylate]
[3]
  Activity against non-replicating M. tuberculosis in the charcoal assay relative to MIC90 against replicating bacteria: 4–8 times
M. tuberculosis H37Rv
  MIC90: 0.125 µg/mL (≈ 0.461 µM)
[1]; 2 times of MIC90 (0.25 μg/ml)
  Reduction of the number of intracellular M. tuberculosis bacteria: ca. 2 logs
[1]
  Reduction of the burden of intracellular bacteria: more than 4 logs
M. bovis BCG cultures
  NO release in treated M. bovis BCG cultures: significant NO release in a concentration dependent manner
  Nitrite levels relative to nNF-C2: ~4 times

## N#Cc1ccc2c(ccc3oc([N+](=O)[O-])cc32)c1 [nNF-C5, 2-Nitronaphtho[2,1-b]furan-7-carbonitrile]
In vitro
  CC50: 12.5 µg/mL (≈ 52.5 µM)
M. tuberculosis H37Rv
  MIC90: 0.25 µg/mL (≈ 1.05 µM)

## O=[N+]([O-])c1cc2c(ccc3cc(Br)ccc32)o1 [nNF-C6, 7-Bromo-2-nitronaphtho[2,1-b]furan]
Vero cells
  Selectivity index (SI): 182.6
M. tuberculosis H37Rv
  MIC90: 0.5 µg/mL (≈ 1.71 µM)

## COc1ccc2c(ccc3oc([N+](=O)[O-])c(C)c32)c1 [nNF-C7, 7-Methoxy-1-methyl-2-nitronaphtho[2,1-b]furan]
In vitro
  CC50: 67.5 µg/mL (≈ 262 µM)
M. tuberculosis H37Rv
  MIC90: 4 µg/mL (≈ 15.5 µM)

## COc1cc2ccc3oc([N+](=O)[O-])cc3c2cc1OC [nNF-C8, 7,8-Dimethoxy-2-nitronaphtho[2,1-b]furan]
In vitro
  CC50: 0.4 µg/mL (≈ 1.46 µM)
M. tuberculosis H37Rv
  MIC90: 0.125 µg/mL (≈ 0.457 µM)

## CCCCc1c([N+](=O)[O-])oc2ccc3ccccc3c12 [nNF-C12, 1-Butyl-2-nitronaphtho[2,1-b]furan]
In vitro
  CC50: 73.5 µg/mL (≈ 273 µM)
M. tuberculosis H37Rv
  MIC90: 4 µg/mL (≈ 14.9 µM)

## Cc1c([N+](=O)[O-])oc2ccc3ccccc3c12 [nNF-C14, 1-Methyl-2-nitronaphtho[2,1-b]furan]
Vero cells
  Selectivity index (SI): >50
M. tuberculosis H37Rv
  MIC90: 2 µg/mL (≈ 8.8 µM)

## COc1ccc2c(ccc3oc([N+](=O)[O-])cc32)c1 [nNF-C16, 7-Methoxy-2-nitronaphtho[2,1-b]furan]
In vitro
  CC50: 0.3 µg/mL (≈ 1.23 µM)
M. tuberculosis H37Rv
  MIC90: 0.0625 µg/mL (≈ 0.257 µM)

## CCc1c([N+](=O)[O-])oc2ccc3ccccc3c12 [nNF-C17, 1-Ethyl-2-nitronaphtho[2,1-b]furan]
In vitro
  CC50: 55.1 µg/mL (≈ 228 µM)
M. tuberculosis H37Rv
  MIC90: 2 µg/mL (≈ 8.29 µM)

## COc1ccc2ccc3oc([N+](=O)[O-])cc3c2c1Br [nNF-C18, 9-Bromo-8-methoxy-2-nitronaphtho[2,1-b]furan]
In vitro
  CC50: 2.2 µg/mL (≈ 6.83 µM)
M. tuberculosis H37Rv
  MIC90: 0.25 µg/mL (≈ 0.776 µM)

## CCOC(=O)COc1ccc2ccc3oc([N+](=O)[O-])cc3c2c1 [nNF-C20, Ethyl 2-({2-nitronaphtho[2,1-b]furan-8-yl}oxy)acetate]
In vitro
  CC50: 9.3 µg/mL (≈ 29.5 µM)
M. tuberculosis H37Rv
  MIC: 0.25 µg/mL (≈ 0.793 µM)
